The text below walks through data of US9273317B2, “Methods and compositions for inhibiting the growth and/or proliferation of MYC-driven tumor cells” (Fred Hutchinson Cancer Research Center, priority 2011, dated 2016).

Series [1] concerns MYCN amplified neuroblastoma xenograft (IMR32). The series can be described thus: IC261 treatment of MYCN amplified neuroblastoma xenograft. The class given is in vivo, NOD/SCID mice. On the procedure:
FIG. 3. IC261 treatment blocks MYCN amplified neuroblastoma tumor growth in vivo. a, Representative images of MYCN amplified neuroblastoma xenograft in NOD/SCID mice before and after treatment with either DMSO or IC261. Tumors were engrafted, and allowed to reach a size of about 100 mm^3, then IC261 (21.5 mg/kg) or DMSO was injected subcutaneously daily for 8 days. b, Quantitation of tumor size over the 8-day treatment regimen with either IC261 or DMSO control. Values represent mean tumor volume at each time point (n=5 for each group, error bars indicate SD). c, Immunohistochemical analysis of tumor sections from IC261 and DMSO treatment groups described in a and b. Representative images of H-E, TUNEL and BrdU staining for each group are shown. BrdU was administered 2 h before collection. d. Quantification of TUNEL positive cells and BrdU positive cells per field in DMSO or IC-261 treated xenograft tumors. Error bars indicate SD of means.
(§1) As there is strong selection to escape lentiviral-mediated silencing of genes that are necessary for cell growth, we proceeded to evaluate a small molecule inhibitor of CSNK1e enzymatic activity, IC261^33. […] A cohort of ten xenograft bearing mice was randomized into two groups with approximate equal tumor burden; one group was treated with daily subcutaneous injection of IC261 for 8 consecutive days, while the control group was treated with DMSO vehicle only. […] Taken together, the results obtained by genetic knock-down as well as via small molecule inhibitor validate CSNK1e as a potential therapeutic target for MYCN-driven neuroblastoma.

For series [2], the system named is MYC overexpressing cells. The series can be described thus: IC261 viability by CellTiter-Glo in cells with or without MYC overexpression. Format: cell-based, human. The following applies: 48 hrs, HFF with or without c-Myc, Tet21N with or without doxycyclin, IMR-32. As to the method:
(§2) a. HFF cell lines with or without c-Myc over-expression were treated with 0-10 uM IC261 for 48 hrs. The cells were exposed to CellTiter-Glo reagent and viability was assessed by ATP-induced chemiluminescence. Values indicate mean±SD. b. Tet21N cells with or without doxycyclin treatment and IMR-32 cells (MYCN+) were treated with 0-30 uM IC261 for 48 hrs. The cells were exposed to CellTiter-Glo reagent and the viability was assessed by ATP-induced chemiluminescence. Values indicate mean±SD. c. Cell growth curves for HFF-pBabe incubated with different concentrations of IC261. d. Cell growth curves for HFF-MYC incubated with different concentrations of IC261.
as §1
(In general: ATP-based viability assays read luminescence as a measure of living cells.)

Series [3] deals with IMR-32 cells (MYCN+). The series can be described thus: IC261 viability by CellTiter-Glo in IMR-32 cells. Conditions: 0-30 uM, 48 hrs. The class given is cell-based, human. As to the method:
as §2, §1

In series [4] the test system is HFF-pB. Briefly: High throughput siRNA screen, cell viability by Alamar Blue, control cells. The following applies: siRNA pool (3 siRNAs/pool), day 5, average of 3 replicates, relative to median of wells transfected with siRNA to luciferase. The class given is cell-based, human. As to the method: FIG. 1. Identification of synthetic lethal genes with c-MYC overexpression by high throughput siRNA screening. a, Graphical schematic of the siRNA screen. HFF expressing either c-MYC or transduced with an empty retroviral vector, pB, were plated in 384 well plates. 24 hr later they were transfected with siRNA pools (3 siRNAs/pool) targeting a total of ˜3,311 genes, with one gene targeted per well. At day 5, the viability was quantified utilizing an Alamar Blue staining assay and an EnVision plate reader. b, Graphical representation of cell viability as affected by each siRNA pool in both HFF-pB or HFF-c-MYC and quantified as % relative to mock (on a log10 scale). Values represent the average viability of 3 replicates. […] Relative levels of each gene were calculated using the ΔΔCT method and using GAPDH to normalize mRNA levels within each sample. d, Viability of HFF-pBabe and HFF-Myc following stable, lentiviral based knock-down of MYC-SL genes CSNK1e, PES1 and CECR2. […] Y-axis indicates the % of cells stained with anti-γ-H2AX that scored for nuclear fluorescence levels above a negative control established threshold. Quantitation was obtained by automated microscopy in 96 well format, from triplicate samples. g, Quantitative assessment of Caspase-3 and -7 cleavage following transfection of the same siRNA pools as above (measured by the CaspaseGlo kit, Promega). […]
In general terms: Alamar Blue is a resazurin reagent that responds to reducing activity.

The test system of series [5] is HFF-MYC. Briefly: High throughput siRNA screen, cell viability by Alamar Blue, c-MYC overexpressing cells. The class given is cell-based, human. On the procedure: FIG. 1. Identification of synthetic lethal genes with c-MYC overexpression by high throughput siRNA screening. a, Graphical schematic of the siRNA screen. HFF expressing either c-MYC or transduced with an empty retroviral vector, pB, were plated in 384 well plates. 24 hr later they were transfected with siRNA pools (3 siRNAs/pool) targeting a total of ˜3,311 genes, with one gene targeted per well. At day 5, the viability was quantified utilizing an Alamar Blue staining assay and an EnVision plate reader. b, Graphical representation of cell viability as affected by each siRNA pool in both HFF-pB or HFF-c-MYC and quantified as % relative to mock (on a log10 scale). Values represent the average viability of 3 replicates. A set of siRNAs (targeting 102 genes labeled as light shaded+) caused differential loss of viability (Z score>2) in the HFF-MYC versus control pB. An additional set of siRNAs targeting 20 genes caused selective growth advantage to HFF-MYC. c, CSNK1e, PES1 and CECR2 mRNA levels following lentiviral-mediated shRNA knock-down. Relative levels of each gene were calculated using the ΔΔCT method and using GAPDH to normalize mRNA levels within each sample. d, Viability of HFF-pBabe and HFF-Myc following stable, lentiviral based knock-down of MYC-SL genes CSNK1e, PES1 and CECR2. […] Y-axis indicates the % of cells stained with anti-γ-H2AX that scored for nuclear fluorescence levels above a negative control established threshold. Quantitation was obtained by automated microscopy in 96 well format, from triplicate samples. g, Quantitative assessment of Caspase-3 and -7 cleavage following transfection of the same siRNA pools as above (measured by the CaspaseGlo kit, Promega). […]
We employed a high throughput robotics-based approach for massive parallel testing of an arrayed siRNA library to accurately quantify the effects of siRNAs against ˜3,300 druggable genes and 200 microRNAs on the viability of HFF-MYC (stably transduced with a retroviral vector expressing c-MYC), or a control empty vector, HFF-pB^14, see FIG. 1a for schematic of the experimental set-up). […]

Regarding `COc1cc(OC)c(C=C2C(O)=Nc3ccccc32)c(OC)c1` [IC261], the tumor growth entry in series [1] (21.5 mg/kg subcutaneously daily for 8 days) is listed as “effective in halting tumor growth in all treated mice”. The “apoptosis by TUNEL staining of tumor tissue” value in series [1] (after IC261 treatment) was “very little apoptosis was detected”. For the same molecule, the “BrdU labeling of tumor tissue” value in series [1] (after IC261 treatment, BrdU 2 h before collection) is “marked decrease in BrdU labeling”. Also, the “differences in IC50, MYC overexpressing versus normal or low MYC expressing cells” value in series [2] is recorded as more than 100 fold. In series [3], the “sensitivity to IC261 in vitro” value is given as “highly sensitive”.
For the molecule CTPS, the “% Viability HFF-pB” value in series [4] is reported as 70.57%. Besides, the “Z score (>than)” value in series [5] (differential loss of viability HFF-MYC versus HFF-pB) was more than 2.5. The “Ratio pBabe/Myc” value in series [5] (ratio of percent viability of a given siRNA pool in HFF-pB/HFF-MYC) worked out at 3.63. Moreover, the “% Viability HFF-MYC” value in series [5] (siRNA pool (3 siRNAs/pool), day 5, average of 3 replicates, relative to median of wells transfected with siRNA to luciferase) amounted to 19.44%.
